This is an account of results in patent US20240368121A1, “ESTROGEN RECEPTOR DEGRADERS, PHARMACEUTICAL COMPOSITIONS THEREOF, AND THEIR THERAPEUTIC APPLICATIONS” (BioTheryX, Inc., priority 2021, published 2024).

The term IC50 denotes the concentration needed to halve the response being measured.

Some results are limits rather than exact numbers.

Common to all, as to format: cell-based
One assay relates to T47D cells. The assay can be described thus: Cell viability assay ([…]-GLO, 6-day treatment). To be noted: Homo sapiens, 144 h, 6 days, CTG, read-out: Inhibition of Cancerous Cells IC50 T47D. The procedure: (§1) A compound provided herein was evaluated for its anticancer activity in MCF7 and T47D cells. MCF7 and T47D cells were cultured at 37° C. in a humidified 5% C02 environment in MEM or RPMI, supplemented with 10% FBS with insulin, respectively. The cells were plated in 384-well microplates at a density of 1,000 cells per well in their respective maintenance media. The cells were treated with the compound by a 10-point dose response curve for 6 days, during which, the medium and compound were refreshed once. After the 6-day treatment, the cell viability was assessed using […]-GLO (CTG) reagent. Luminescence was measured with a microplate reader.

The subject of a further assay is MCF7 cells. Nature of the assay: Cell viability assay ([…]-GLO, 6-day treatment). The settings on record: Homo sapiens, MCF7, 144 h; MCF-7 cells, 6 days, CTG; read-out: Inhibition of Cancerous Cells IC50 MCF-7. The procedure:
as §1

The next assay deals with T1, ERα (Homo sapiens, UniProt P03372).
T1 construct: degrading an ERα in MCF-7 cells via a western blot; endogenous in cells; host or cells: MCF-7
T1 sequence (P03372 1-595): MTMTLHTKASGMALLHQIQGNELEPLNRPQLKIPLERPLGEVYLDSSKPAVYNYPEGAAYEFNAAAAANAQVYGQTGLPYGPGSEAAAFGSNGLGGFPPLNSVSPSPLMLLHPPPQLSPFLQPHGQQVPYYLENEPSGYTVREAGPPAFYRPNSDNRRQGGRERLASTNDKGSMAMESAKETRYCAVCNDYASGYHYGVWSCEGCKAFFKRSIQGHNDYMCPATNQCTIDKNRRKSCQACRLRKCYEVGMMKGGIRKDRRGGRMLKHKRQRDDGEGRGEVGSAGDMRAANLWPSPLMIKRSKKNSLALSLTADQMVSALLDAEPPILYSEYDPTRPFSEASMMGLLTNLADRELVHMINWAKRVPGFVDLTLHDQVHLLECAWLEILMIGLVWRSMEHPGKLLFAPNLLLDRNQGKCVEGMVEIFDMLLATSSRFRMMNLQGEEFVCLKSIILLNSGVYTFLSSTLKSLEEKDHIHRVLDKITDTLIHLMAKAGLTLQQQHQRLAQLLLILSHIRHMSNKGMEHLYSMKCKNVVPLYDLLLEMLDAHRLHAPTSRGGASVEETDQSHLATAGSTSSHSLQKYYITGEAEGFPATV
Nature of the assay: Protein degradation assay: ERα in MCF-7 cells via western blot. To be noted: 6 h; for ERα Protein Degradation 1 nM: 1 nM compound; for ERα Protein Degradation 10 nM: 10 nM compound; for ERα Protein Degradation 100 nM: 100 nM compound. As for the experimental part:
A compound provided herein was assessed for its activity in degrading an ERα in MCF-7 cells via a western blot. The MCF7 cells were cultured at 37° C. in a humidified 5% C02 environment in MEM supplemented with 10% FBS with insulin. The cells were seeded in 12-well plates at a density of 300,000 cells per well in maintenance media. Cells were treated with the compound at predetermined concentrations (e.g., 1 nM, 10 nM, 100 nM, and 1 μM) for 6 h. The cells were then washed in PBS and the whole cells were lysed in a cell lysis buffer and incubated for 15 minutes on ice. Cell debris was removed by high-speed centrifugation and the cleared whole cell lysates were prepared for further analysis by a western blot. The whole cell protein extracts were separated on SDS-polyacrylamide gels, transferred to nitrocellulose membranes, and probed with primary antibodies, including anti-ERα antibody and GAPDH antibody for loading control. The membranes were subsequently washed and probed with secondary antibodies for chemiluminescence, followed by imaging on a BIORAD CHEMIDOC Imaging System. The results are summarized in Table 2, where “A” represents a percentage degradation value of no less than 50%; “B” represents a percentage degradation value of less than 50% and no less than 25%; “C” represents a percentage degradation value of less than 25% and no less than 10%; and “D” represents a percentage degradation value of less than 10%.

On to `O=C1CCC(N2Cc3c(cc(F)cc3C3CCN(CCCCOc4ccc([C@@H]5c6ccc(O)cc6CC[C@@H]5c5ccccc5)cc4)CC3)C2=O)C(=O)N1` (stereo partly drawn) [Compound A1, 3-(6-fluoro-4-(1-(4-(4-((1R,2S)-6-hydroxy-2-phenyl-1,2,3,4-tetrahydro-naphthalen-1-yl)phenoxy)butyl)piperidin-4-yl)-1-oxoisoindolin-2-yl)piperidine-2,6-dione], for which the IC50 in the assay with T47D cells came out at 0.24 nM. For the same molecule, in the assay with MCF7 cells, the IC50 is less than 0.01 nM. In addition, on ERα, the “ERα Protein Degradation 1 nM” value was “C (a percentage degradation value of less than 25% and no less than 10%)”; the “ERα Protein Degradation 10 nM” value is “C (a percentage degradation value of less than 25% and no less than 10%)”; the “ERα Protein Degradation 100 nM” value is “B (a percentage degradation value of less than 50% and no less than 25%)”.
For `Cc1c(-c2ccc(O)cc2)n(Cc2ccc(OCCCCN3CCN(C(=O)COc4cccc5c4CN(C4CCC(=O)NC4=O)C5=O)CC3)cc2)c2ccc(O)cc12` (stereo not shown) [Compound E1, 3-(4-(2-(4-(4-(4-((5-hydroxy-2-(4-hydroxyphenyl)-3-methyl-1H-indol-1-yl)-methyl)phenoxy)butyl)piperazin-1-yl)-2-oxoethoxy)-1-oxoisoindolin-2-yl)piperidine-2,6-dione], the IC50 in the assay on T47D cells was found to be 0.84 nM. For the same molecule, the IC50 with MCF7 cells was 19 nM. In addition, on ERα, the “ERα Protein Degradation 1 nM” value was “C (a percentage degradation value of less than 25% and no less than 10%)”; the “ERα Protein Degradation 10 nM” value was “B (a percentage degradation value of less than 50% and no less than 25%)”; the “ERα Protein Degradation 100 nM” value was “B (a percentage degradation value of less than 50% and no less than 25%)”.
Regarding `O=C1CCC(N2Cc3cc(C4CCN(CCCCCCOc5ccc([C@@H]6c7ccc(O)cc7CC[C@@H]6c6ccccc6)cc5)CC4)c(F)cc3C2=O)C(=O)N1` (stereo partly drawn) [Compound A5, 3-(6-Fluoro-5-(1-(6-(4-((1R,2S)-6-hydroxy-2-phenyl-1,2,3,4-tetrahydro-naphthalen-1-yl)phenoxy)hexyl)piperidin-4-yl)-1-oxoisoindolin-2-yl)piperidine-2,6-dione], the IC50 in the assay on T47D cells came out at 0.22 nM. In the assay with MCF7 cells, the IC50 was 0.37 nM. On ERα, the “ERα Protein Degradation 1 nM” value is reported as “A (a percentage degradation value of no less than 50%)”, the “ERα Protein Degradation 10 nM” value is given as “A (a percentage degradation value of no less than 50%)” and the “ERα Protein Degradation 100 nM” value is “A (a percentage degradation value of no less than 50%)”.
With `Cn1nc(C2CCC(=O)NC2=O)c2cccc(OCC(=O)N3CCN(CCCCOc4ccc(CC5(C)C(c6ccc(O)cc6)=Nc6ccc(O)cc65)cc4)CC3)c21` (stereo not shown) [Compound D4, 3-(7-(2-(4-(4-(4-((5-hydroxy-2-(4-hydroxyphenyl)-3-methyl-3H-indol-3-yl)-methyl)phenoxy)butyl)piperazin-1-yl)-2-oxoethoxy)-1-methyl-1H-indazol-3-yl)piperidine-2,6-dione], in the assay on T47D cells, the IC50 is 84 nM. On ERα, the “ERα Protein Degradation 1 nM” value is “D (a percentage degradation value of less than 10%)”; the “ERα Protein Degradation 10 nM” value is listed as “D (a percentage degradation value of less than 10%)”; the “ERα Protein Degradation 100 nM” value was “C (a percentage degradation value of less than 25% and no less than 10%)”.
As to `O=C1CCC(c2ccc(OCC(=O)N3CCN(CCCCOc4ccc([C@H]5c6ccc(O)cc6CC[C@H]5c5ccccc5)cc4)CC3)cc2)C(=O)N1` (stereo partly drawn) [Compound B44, 3-(4-(2-(4-(4-(4-((1S,2R)-6-Hydroxy-2-phenyl-1,2,3,4-tetrahydronaphthalen-1-yl)phenoxy)butyl)piperazin-1-yl)-2-oxoethoxy)phenyl)piperidine-2,6-dione], the IC50 with MCF7 cells was 107 nM. On ERα, the “ERα Protein Degradation 1 nM” value is “B (a percentage degradation value of less than 50% and no less than 25%)”; the “ERα Protein Degradation 10 nM” value is “C (a percentage degradation value of less than 25% and no less than 10%)”; the “ERα Protein Degradation 100 nM” value is “C (a percentage degradation value of less than 25% and no less than 10%)”.
As for `Cc1c(-c2ccc(O)cc2)n(Cc2ccc(OCCCCN3CCN(C(=O)COc4cccc(C5CCC(=O)NC5=O)c4)CC3)cc2)c2ccc(O)cc12` (stereo not shown) [Compound E25, 3-(3-(2-(4-(4-(4-((5-Hydroxy-2-(4-hydroxyphenyl)-3-methyl-1H-indol-1-yl)-methyl)phenoxy)butyl)piperazin-1-yl)-2-oxoethoxy)phenyl)piperidine-2,6-dione], in the assay with MCF7 cells, the IC50 stood at 5 nM. Besides, at ERα, the “ERα Protein Degradation 1 nM” value is on record as “D (a percentage degradation value of less than 10%)”, the “ERα Protein Degradation 10 nM” value is given as “D (a percentage degradation value of less than 10%)” and the “ERα Protein Degradation 100 nM” value was “D (a percentage degradation value of less than 10%)”.
In the case of `Cc1c(-c2ccc(O)cc2)n(Cc2ccc(OCCCCN3CCN(C(=O)COc4cccc(N5CCC(=O)NC5=O)c4)CC3)cc2)c2ccc(O)cc12` [Compound E26, 1-(3-(2-(4-(4-(4-((5-Hydroxy-2-(4-hydroxyphenyl)-3-methyl-1H-indol-1-yl)-methyl)phenoxy)butyl)piperazin-1-yl)-2-oxoethoxy)phenyl)dihydropyrimidine-2,4(1H,3H)-dione], the IC50 in the assay with MCF7 cells turned out to be 3.8 nM. Moreover, at ERα, the “ERα Protein Degradation 1 nM” value is listed as “D (a percentage degradation value of less than 10%)”, the “ERα Protein Degradation 10 nM” value is “D (a percentage degradation value of less than 10%)” and the “ERα Protein Degradation 100 nM” value was “D (a percentage degradation value of less than 10%)”.
For `Cc1c(-c2ccc(O)cc2)n(Cc2ccc(OCCCCN3CCN(c4cc5c(s4)CN(C4CCC(=O)NC4=O)C5=O)CC3)cc2)c2ccc(O)cc12` (stereo not shown) [Compound E6, 3-(2-(4-(4-(4-((5-Hydroxy-2-(4-hydroxyphenyl)-3-methyl-1H-indol-1-yl)methyl)-phenoxy)butyl)piperazin-1-yl)-4-oxo-4,6-dihydro-5H-thieno[2,3-c]pyrrol-5-yl)piperidine-2,6-dione], in the assay on MCF7 cells, the IC50 was found to be 0.22 nM. Further, on ERα, the “ERα Protein Degradation 1 nM” value was “D (a percentage degradation value of less than 10%)”, the “ERα Protein Degradation 10 nM” value is on record as “D (a percentage degradation value of less than 10%)” and the “ERα Protein Degradation 100 nM” value is recorded as “D (a percentage degradation value of less than 10%)”.
In the case of `Cc1c(-c2ccc(O)cc2)n(Cc2ccc(OCCCCN3CCN(C(=O)COc4ccc5c(C6CCC(=O)NC6=O)nn(C)c5c4)CC3)cc2)c2ccc(O)cc12` (stereo not shown) [Compound E14, 3-(6-(2-(4-(4-(4-((5-Hydroxy-2-(4-hydroxyphenyl)-3-methyl-1H-indol-1-yl)-methyl)phenoxy)butyl)piperazin-1-yl)-2-oxoethoxy)-1-methyl-1H-indazol-3-yl)piperidine-2,6-dione], in the assay with MCF7 cells, the IC50 came to 0.33 nM. Further, on ERα, the “ERα Protein Degradation 1 nM” value was “B (a percentage degradation value of less than 50% and no less than 25%)”; the “ERα Protein Degradation 10 nM” value is “B (a percentage degradation value of less than 50% and no less than 25%)”; the “ERα Protein Degradation 100 nM” value is “D (a percentage degradation value of less than 10%)”.
As to `Cc1c(-c2ccc(O)cc2)n(Cc2ccc(OCCCCN3CCN(C(=O)COc4cccc5c(N6CCC(=O)NC6=O)nn(C)c45)CC3)cc2)c2ccc(O)cc12` [Compound D23, 1-(7-(2-(4-(4-(4-((5-hydroxy-2-(4-hydroxyphenyl)-3-methyl-1H-indol-1-yl)-methyl)phenoxy)butyl)piperazin-1-yl)-2-oxoethoxy)-1-methyl-1H-indazol-3-yl)dihydro-pyrimidine-2,4(1H,3H)-dione], the IC50 with MCF7 cells was 1.7 nM. In addition, at ERα, the “ERα Protein Degradation 1 nM” value was “C (a percentage degradation value of less than 25% and no less than 10%)”; the “ERα Protein Degradation 10 nM” value is “C (a percentage degradation value of less than 25% and no less than 10%)”; the “ERα Protein Degradation 100 nM” value is “D (a percentage degradation value of less than 10%)”.
